Results published in patent publication US8993757B2, “N-piperidin-4-yl derivatives” (Merck Sharp & Dohme B.V., priority 2011, dated 2015).
Values joined by “and” are separate entries in the source; they are usually repeats but may differ in a detail not shown here. Equal entries are not always repeated.

Target: T1, human FSH receptor (Homo sapiens, UniProt P23945)
T1 construct: expressed in transfected cells; host or cells: CHO cells, cotransfected with a CRE/promotor firefly luciferase reporter
T1 sequence (P23945 18-695): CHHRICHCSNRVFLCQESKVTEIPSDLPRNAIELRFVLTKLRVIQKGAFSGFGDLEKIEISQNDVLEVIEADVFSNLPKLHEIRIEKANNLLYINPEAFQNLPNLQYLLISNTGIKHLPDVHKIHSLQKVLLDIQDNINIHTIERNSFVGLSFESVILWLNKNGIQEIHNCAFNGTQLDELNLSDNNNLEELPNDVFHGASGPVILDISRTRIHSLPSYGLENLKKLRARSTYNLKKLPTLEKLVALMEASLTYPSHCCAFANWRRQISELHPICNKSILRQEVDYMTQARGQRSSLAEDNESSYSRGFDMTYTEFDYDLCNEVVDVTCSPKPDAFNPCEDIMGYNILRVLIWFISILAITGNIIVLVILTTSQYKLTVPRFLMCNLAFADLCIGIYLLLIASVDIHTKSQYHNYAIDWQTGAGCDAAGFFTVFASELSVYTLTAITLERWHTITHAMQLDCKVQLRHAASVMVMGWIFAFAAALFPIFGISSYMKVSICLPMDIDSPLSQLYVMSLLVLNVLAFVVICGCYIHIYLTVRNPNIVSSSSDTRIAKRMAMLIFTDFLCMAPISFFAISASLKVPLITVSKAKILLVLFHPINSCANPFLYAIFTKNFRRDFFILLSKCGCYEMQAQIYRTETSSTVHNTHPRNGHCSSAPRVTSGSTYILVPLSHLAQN
Test: Antagonistic activity at the human FSH receptor expressed in CHO cells (CRE-luciferase reporter)
Format: cell-based
Settings: CHO cells stably transfected with human FSH receptor and CRE/firefly luciferase reporter; 4 hours incubation; read-out: pIC50 (negative logarithm of the IC50 value) (converted)
Protocol: The FSHR antagonists of the invention have pIC50 values higher than 6 in said assay. The preferred compounds of the invention have pIC50 values higher than 8.
Antagonistic activity of the compounds at the human FSH receptor was determined in Chinese Hamster Ovary (CHO) cells stably transfected with the human FSH receptor and cotransfected with a cAMP responsive element (CRE)/promotor directing the expression of a firefly luciferase reporter gene. […] The cells (7,500 cells/well of a 384 well plate) were incubated in Dulbecco′ minimal essential F12 modified medium (Invitrogen), supplemented with 1 μg/ml bovine insulin, 5 μg/ml human apo-transferrin, 100 U/ml penicillin G and 100 μg/ml streptomycin with the test compounds (concentration between 0.316 nM and 10.0 μM) in duplicate together with […] (which, at this concentration in the absence of test compound, induces 80% of the maximal luciferase stimulation) in a humidified atmosphere (95%) at 5-7% CO2 and 37° C. The final concentration of DMSO was 1%. After 4 hours of incubation, plates were allowed to adjust to room temperature for 1 hour. Then, SteadyLite (Perkin Elmer) solution was added to the wells and cells were allowed to lyse for at least 1 hour at room temperature. Subsequently, luciferase activity was measured in a luminescence counter. The signal is expressed as counts per second (cps). The IC50 (concentration of test compound causing half-maximal (50%) inhibition of the maximally attainable inhibition of the luciferase stimulation by the compound) and efficacy of the compounds were determined using the software program MathIQ (version 2.3, ID Business Solutions Limited).

Compound | IC50
COc1cc(OCC2CC2)cc(C(=O)NCC2CCN(c3ncnc(-c4cccc(C(=O)NCCO)c4)n3)CC2)c1 [Example 32H, 3-(cyclopropylmethoxy)-N-((1-(4-(3-(2-hydroxyethylcarbamoyl)phenyl)-1,3,5-triazin-2-yl)piperidin-4-yl)methyl)-5-methoxybenzamide] | 0.01 to 0.1 µM
COc1cc(OCC2CC2)cc(C(=O)NCC2CCN(c3ncnc(-c4cccc(C(=O)Nc5nccs5)c4)n3)CC2)c1 [Example 32I, 3-(cyclopropylmethoxy)-5-methoxy-N-((1-(4-(3-(thiazol-2-ylcarbamoyl)phenyl)-1,3,5-triazin-2-yl)piperidin-4-yl)methyl)benzamide] | 0.01 to 0.1 µM
COc1cc(OCC2CC2)cc(C(=O)NCC2CCN(c3ccnc(-c4cccc(-n5cc(C)cn5)c4)n3)CC2)c1 [Example 33A, 3-(cyclopropylmethoxy)-5-methoxy-N-((1-(2-(3-(4-methyl-1H-pyrazol-1-yl)phenyl)pyrimidin-4-yl)piperidin-4-yl)methyl)benzamide] | 0.01 to 0.1 µM and < 0.01 µM
COc1cc(OCC2CC2)cc(C(=O)NCC2CCN(c3ccnc(-c4ccc5oncc5c4)n3)CC2)c1 [Example 33B, N-((1-(2-(benzo[d]isoxazol-5-yl)pyrimidin-4-yl)piperidin-4-yl)methyl)-3-(cyclopropylmethoxy)-5-methoxybenzamide] | 0.01 to 0.1 µM
COc1cc(OCC2CC2)cc(C(=O)NCC2CCN(c3ccnc(-c4ccc(F)c(C#N)c4)n3)CC2)c1 [Example 33C, N-((1-(2-(3-cyano-4-fluorophenyl)pyrimidin-4-yl)piperidin-4-yl)methyl)-3-(cyclopropylmethoxy)-5-methoxybenzamide] | 0.01 to 0.1 µM
COc1cc(OCC2CC2)cc(C(=O)NCC2CCN(c3ccnc(-c4cccc(-n5ncc(C(=O)O)c5C)c4)n3)CC2)c1 [Example 33D, 1-(3-(4-(4-((3-(cyclopropylmethoxy)-5-methoxybenzamido)methyl)piperidin-1-yl)pyrimidin-2-yl)phenyl)-5-methyl-1H-pyrazole-4-carboxylic acid] | 0.01 to 0.1 µM
COc1cc(OCC2CC2)cc(C(=O)NCC2CCN(c3ccnc(-c4cccc(-n5cccn5)n4)n3)CC2)c1 [Example 33E, N-((1-(2-(6-(1H-pyrazol-1-yl)pyridin-2-yl)pyrimidin-4-yl)piperidin-4-yl)methyl)-3-(cyclopropylmethoxy)-5-methoxybenzamide] | 0.01 to 0.1 µM
COc1cc(OCC2CC2)cc(C(=O)NCC2CCN(c3ncnc(-c4ccc(O)c(C#N)c4)n3)CC2)c1 [Example 34, N-((1-(4-(3-cyano-4-hydroxyphenyl)-1,3,5-triazin-2-yl)piperidin-4-yl)methyl)-3-(cyclopropylmethoxy)-5-methoxybenzamide] | 0.01 to 0.1 µM
COc1cc(OCC2CC2)cc(C(=O)NC2CC23CCN(c2ccnc(-c4cccc(-n5cccn5)c4)n2)CC3)c1 (centres unmarked) [Example 35, N-(6-(2-(3-(1H-pyrazol-1-yl)phenyl)pyrimidin-4-yl)-6-azaspiro[2.5]octan-1-yl)-3-(cyclopropylmethoxy)-5-methoxybenzamide] | 0.01 to 0.1 µM
COc1cc(OCC2CC2)cc(C(=O)NC(C)C2CCN(c3ncnc(-c4cccc(-c5cc[nH]n5)c4)n3)CC2)c1 (centres unmarked) [Example 37, N-(1-(1-(4-(3-(1H-pyrazol-3-yl)phenyl)-1,3,5-triazin-2-yl)piperidin-4-yl)ethyl)-3-(cyclopropylmethoxy)-5-methoxybenzamide] | < 0.01 µM
COc1cc(OCC2CC2)cc(C(=O)NC(C)C2CCN(c3ccnc(-c4cccc(C#N)c4)n3)CC2)c1 (centres unmarked) [Example 38, N-(1-(1-(2-(3-cyanophenyl)pyrimidin-4-yl)piperidin-4-yl)ethyl)-3-(cyclopropylmethoxy)-5-methoxybenzamide] | < 0.01 µM
COc1cc(OCC2CC2)cc(C(=O)NC(C)C2CCN(c3ccnc(-c4cccc(-n5cccn5)c4)n3)CC2)c1 (centres unmarked) [Example 39, N-(1-(1-(2-(3-(1H-pyrazol-1-yl)phenyl)pyrimidin-4-yl)piperidin-4-yl)ethyl)-3-(cyclopropylmethoxy)-5-methoxybenzamide] | < 0.01 µM
COc1cc(OCC2CC2)cc(C(=O)NCC2CCN(c3ncnc(-c4cccc(-c5ncc[nH]5)c4)n3)CC2)c1 [Example 40, N-((1-(4-(3-(1H-imidazol-2-yl)phenyl)-1,3,5-triazin-2-yl)piperidin-4-yl)methyl)-3-(cyclopropylmethoxy)-5-methoxybenzamide 2,2,2-trifluoroacetate] | < 0.01 µM
COc1cc(OCC2CC2)cc(C(=O)NCC2CCN(c3nc(-c4cccc(-c5ncc[nH]5)c4)ncc3F)CC2)c1 [Example 41, N-((1-(2-(3-(1H-imidazol-2-yl)phenyl)-5-fluoropyrimidin-4-yl)piperidin-4-yl)methyl)-3-(cyclopropylmethoxy)-5-methoxybenzamide 2,2,2-trifluoroacetate] | < 0.01 µM
COc1cc(NC(=O)C2CCN(c3ccnc(-c4cccc(-n5cccn5)c4)n3)CC2)cc(OCc2ccc(F)cc2)c1 [Example 42, 1-(2-(3-(1H-pyrazol-1-yl)phenyl)pyrimidin-4-yl)-N-(3-(4-fluorobenzoxy)-5-methoxyphenyl)piperidine-4-carboxamide] | 0.01 to 0.1 µM
COc1cc(NC(=O)C2CCN(c3ccnc(-c4cccc(-n5cccn5)c4)n3)CC2)cc(OCc2cc(C)on2)c1 [Example 43, 1-(2-(3-(1H-pyrazol-1-yl)phenyl)pyrimidin-4-yl)-N-(3-methoxy-5-((5-methylisoxazol-3-yl)methoxy)phenyl)piperidine-4-carboxamide] | < 0.01 µM
COc1cc(NC(=O)C2CCN(c3ccnc(-c4cccc(-n5cccn5)c4)n3)CC2)cc(OC(C)C)c1 [Example 44, 1-(2-(3-(1H-pyrazol-1-yl)phenyl)pyrimidin-4-yl)-N-(3-isopropoxy-5-methoxyphenyl)piperidine-4-carboxamide] | 0.01 to 0.1 µM
COc1cc(NC(=O)C2CCN(c3ccnc(-c4cccc(-n5cccn5)c4)n3)CC2)cc(OCC2CCCCC2)c1 [Example 45, 1-(2-(3-(1H-pyrazol-1-yl)phenyl)pyrimidin-4-yl)-N-(3-(cyclohexylmethoxy)-5-methoxyphenyl)piperidine-4-carboxamide] | 0.01 to 0.1 µM
Cc1cc(NC(=O)C2CCN(c3ccnc(-c4cccc(-n5cccn5)c4)n3)CC2)cc(OC(F)(F)F)c1 [Example 46, 1-(2-(3-(1H-pyrazol-1-yl)phenyl)pyrimidin-4-yl)-N-(3-methyl-5-(trifluoromethoxy)phenyl)piperidine-4-carboxamide] | 0.01 to 0.1 µM
COc1cc(NC(=O)C2CCN(c3ccnc(-c4cccc(-n5cccn5)c4)n3)CC2)cc(OC)c1 [Example 51, 1-(2-(3-(1H-pyrazol-1-yl)phenyl)pyrimidin-4-yl)-N-(3,5-dimethoxyphenyl) piperidine-4-carboxamide] | < 0.01 µM
